Measured values from US10507214B2 (Druggability Technologies IP Holdco Limited, priority 2016, dated 2019).
Converted amounts (≈) assume the structure as drawn. Where two headings read alike, the source gives them in different places.

Experiments:
[1] = In-vivo PK test in beagle dogs; conditions: oral, dispersed granulates, beagle dogs following a high-fat meal
[2] = PAMPA permeability; format: in vitro ADME; conditions: pH 7, in water, FaSSIF and FeSSIF
[3] = Apparent solubility by UV-VIS spectroscopy after 100 nm filtration; format: physicochemical; conditions: thermodynamic from solid; redispersed at 2 mg/mL in ultrapurified water, room temperature
Source text: The resulting solutions were filtered by 100 nm disposable syringe filter.

[4] = healthy subjects, within the clinical dose range; cited from earlier work
[5] = cited from earlier work
[6] = single dose of 200 mg of current formulation; cited from earlier work
[7] = cited from earlier work; remark: listed apart in the source
[8] = single oral dose of radiolabeled drug

Tmax ([1]; dog, plasma, 5 mg/kg) [h]	t250 ng/ml [1] [min]	Papp at 4 h [2] [×10⁻⁶ cm/s]	solubility [3] [µg/mL]	SMILES	protein bound [4] [%]	time of peak plasma levels ([5]; after an oral dose)	effective half-life ([5]; fasted conditions)	dose proportionality of Cmax and AUC ([5]; fasting conditions, up to 200 mg BID)	overall systemic exposure (AUC), intact capsule versus capsule contents sprinkled on applesauce ([5]; healthy adult volunteers)	apparent plasma clearance (CL/F) ([5]; in vivo)	unchanged drug recovered in the urine and feces ([5]; in vivo) [%]	steady-state conditions reached ([5]; multiple dosing) [days]	time of peak plasma levels ([5]; single dose of 200 mg of current formulation, oral) [h]	carboxylic acid metabolite in urine and feces [5, 8]	dose excreted in the feces [5, 8]	dose excreted into the urine [5, 8] [%]	onset of pain relief [6] [h]	solubility in chloroform ([7]; chloroform)	solubility in methanol ([7]; methanol)	solubility in water ([7]; water)
2	45	< 0.2	2.85 (≈ 7.47 µM)	Cc1ccc(-c2cc(C(F)(F)F)nn2-c2ccc(S(N)(=O)=O)cc2)cc1 [crystalline Celecoxib (micronized)]	–	–	–	–	–	–	–	–	–	–	–	–	–	–	–	–
–	–	–	–	Cc1ccc(-c2cc(C(F)(F)F)nn2-c2ccc(S(N)(=O)=O)cc2)cc1 [Celecoxib, 4-[5-(4-methylphenyl)-3-(trifluoromethyl)-1H-pyrazol-1-yl] benzenesulfonamide]	~97	approximately 3 hrs	approximately 11 hours	roughly dose-proportional	equivalent	about 500 mL/min	< 3	≤ 5	3	73 % of dose	approximately 57%	~27	≥ 1	soluble	soluble	insoluble
